{"source": "patent US5516756A", "about": "“Aza cyclohexapeptide compounds” (Merck & Co., Inc., priority 1994, dated 1996)", "key": {"[1]": {"test_system": "Candida albicans (MY 1055)", "type": "cell-based", "settings": "MY 1055, 24 h", "protocol": "(§1) The compounds of the present invention are active against many fungi and particularly against Candida species. The antifungal properties may be illustrated with the minimum fungicidal concentration (MFC) determination against certain Candida organisms in a microbroth dilution assay carded out in a Yeast Nitrogen Base (DIFCO) medium with 1% dextrose (YNBD).\n(§2) In a representative assay, compounds were solubilized in 100% dimethyl sulfoxide (DMSO) at an initial concentration of 5 mg/ml. Once dissolved, the drug stock was brought to a concentration of 512 μg/ml by dilution in water such that the final DMSO concentration was about 10 percent. The solution was then dispensed via a multichannel pipetter into the first column of a 96-well plate (each well containing 0.075 ml of YNBD), resulting in a drug concentration of 256 μg/ml. Compounds in the first column were diluted 2-fold across the rows yielding final drug concentration ranging from 256 μg/ml to 0.12 μg/ml.\n(§3) Four-hour broth cultures of organisms to be tested were adjusted using a spectrophotometer at 600 nm to equal a 0.5 McFarland Standard. This suspension was diluted 1:100 in YNBD to yield a cell concentration of 1-5×10^4 colony forming units (CFU)/ml. Aliquots of the suspension (0.075 ml) were inoculated into each well of the microtiter plate resulting in a final cell inoculum of 5-25×10^3 CFU/ml and final drug concentrations ranging from 128 μg/ml to 0.06 μg/ml. Each assay included one row for drug-free control wells and one row for cell-free control wells.\n(§4) After 24 hours of incubation, the microtiter plates were shaken gently on a shaker to resuspend the cells. The MIC-2000 inoculator was used to transfer a 1.5 microliter sample from each well of the 96-well microtiter plate to a single reservoir inoculum plate containing Sabouraud dextrose agar (SDA). The inoculated SDA plates were incubated for 24 hours at 35° C. and then read for minimum fungicidal concentration (MFC). MFC is defined as the lowest concentration of drug showing no growth or less than 4 colonies per spot. […]"}, "[2]": {"test_system": "Candida parapsilosis (MY 1010)", "type": "cell-based", "settings": "MY 1010, 24 h", "protocol": "as §1, §2, §3, §4"}, "[3]": {"test_system": "Candida tropicalis (MY 1012)", "type": "cell-based", "settings": "MY 1012, 24 h", "protocol": "as §1, §2, §3, §4"}, "Candida albicans MY 1055": {"test_system": "Candida albicans MY 1055", "assay": "In vivo effectiveness: kidney CFU in mice infected I.V. with Candida albicans", "settings": "0.07 mg/kg i.p. twice daily for four consecutive days; female DBA/2 mice; CFU per gram of kidneys after seven days", "protocol": "The in vivo effectiveness of the compounds against fungi may be seen in the following assay.\nGrowth from an overnight SDA culture of Candida albicans MY 1055 was suspended in sterile saline and the cell concentration determined by hemacytometer count and the cell suspension adjusted to 3.75×10^5 cells/ml. Then 0.2 milliliter of this suspension was administered I.V. in the tail vein of mice so that the final inoculum is 7.5×10^4 cells/mouse.\nThe assay was then carried out by administering aqueous solutions of Compound I at various concentrations intraperitoneally (I.P.), twice daily (b.i.d.) for four consecutive days to 18 to 20 gram female DB A/2 mice, which previously had been infected with Candida albicans (MY 1055) in the manner described above. Distilled water was administered I.P. to C. albicans challenged mice as controls. After seven days, the mice were sacrificed by carbon dioxide gas, paired kidneys were removed aseptically and placed in sterile polyethylene bags containing 5 milliliters of sterile saline. The kidneys were homogenized in the bags, serially diluted in sterile saline and aliquots spread on the surface of SDA plates. The plates were incubated at 35° C. for 48 hours and yeast colonies enumerated for determination of colony forming units (CFU) per gram of kidneys. […]"}}, "data": [{"smiles": "CCC(C)CC(C)CCCCCCCCC(=O)N[C@H]1C[C@@H](O)[C@@H](NC(=O)[C@@H](N)CN)NC(=O)[C@@H]2[C@@H](O)CCN2C(=O)[C@H]([C@H](O)CCN)NC(=O)[C@H]([C@H](O)[C@@H](O)c2ccc(O)cc2)NC(=O)[C@@H]2C[C@@H](O)CN2C(=O)[C@H]([C@@H](C)O)NC1=O", "note": "(stereo partly shown) [Compound I]", "values": [{"measurement": "minimum fungicidal concentration (MFC)", "setting": "[1]", "result": 1, "unit": "µg/mL"}, {"measurement": "minimum fungicidal concentration (MFC)", "setting": "[2]", "result": 0.5, "unit": "µg/mL"}, {"measurement": "minimum fungicidal concentration (MFC)", "setting": "[3]", "result": 1, "unit": "µg/mL"}, {"measurement": "reduction of recoverable Candida CFUs", "setting": "Candida albicans MY 1055", "result": "greater than 99%"}]}]}
